Earlier results in US8048872B2, “Treatment of hyperproliferative diseases with vinca alkaloid N-oxide and analogs” (Stat of Oregon Acting by and Through The Oregon State Board …, priority 2006, dated 2011).
Read-outs that look alike come from different tables or passages of the source.

Details: cited from earlier work
[1] = melanoma, 200 mg/m^2/d PO days 1-5, every 28 days, Grade III-IV
[2] = melanoma, 200 mg/m^2/d PO days 1-5, every 28 days

O=c1[nH]cc(F)c(=O)[nH]1 [5-Fluorouracil]
Diarrhea (human, in vivo, iv): Diarrhea* 22% | Hand-Foot Syndrome (human, in vivo, iv): Syndrome* 14% | Leukopenia/Neutropenia Toxicity (human, in vivo, iv): Grade III-IV 0% | Stomatitis (human, in vivo, iv): Stomatitis* 31%

CC1=C(/C=C/C(C)=C/C=C/C(C)=C/C(=O)O)C(C)(C)CCC1 [ATRA]
Hepatotoxicity (Maintenance Therapy (n = 94)): Hepatotoxicity 5.3% | Infection (Maintenance Therapy (n = 94)): Infection 7.4% | Life-Threatening Toxicity (Maintenance Therapy (n = 94)): Toxicity 36% | Neurotoxicity (Maintenance Therapy (n = 94)): Neurotoxicity 11.7%

CN(C)c1nc(N(C)C)nc(N(C)C)n1 [Altretamine]
Anemia Grade III-IV (human, in vivo, iv): Anemia Grade III-IV 2% | Fatigue (human, in vivo, iv): Fatigue 9% | Nausea (human, in vivo, iv): Nausea 14% | Neurologic (human, in vivo, iv): Neurologic 2% | Vomiting (human, in vivo, iv): Vomiting 12%

O=NN(CCCl)C(=O)NCCCl [BCNU (carmustine)]
Nausea/Vomiting (Grade III-IV): Nausea/Vomiting 5% | Thrombocytopenia (Grade III-IV): Thrombocytopenia 21% | Leukopenia (Grade III): Grade III 4% | Leukopenia (Grade IV): Grade IV 1%

CCCCCOC(=O)Nc1nc(=O)n([C@@H]2O[C@H](C)[C@@H](O)[C@H]2O)cc1F [Capecitabine]
Dehydration (human, in vivo, iv): Dehydration 4% | Fatigue (human, in vivo, iv): Fatigue 7% | Hyperbilirubinemia (human, in vivo, iv): 17.3% | Hyperglycemia (human, in vivo, iv): Hyperglycemia 8.7% | Leukopenia/Neutropenia Toxicity (human, in vivo, iv): Grade III-IV 3% | Nausea (human, in vivo, iv): Nausea 4% | Stomatitis (human, in vivo, iv): Stomatitis 3% | Vomiting (human, in vivo, iv): Vomiting 4% | Leukopenia (human, in vivo): Grade III 0.3%

N.N.[Cl][Pt][Cl] [Cisplatin]
Anemia Grade III-IV (Grade III-IV): 11% | Cardiovascular (Grade III-IV): Cardiovascular 2% | Leukopenia (Grade III-IV): Grade III-IV 7% | Neurologic (Grade III-IV): Neurologic 11% | Neutropenic Fever (Grade III-IV): Neutropenic Fever <1% | Renal (Grade III-IV): Renal 4% | Leukopenia (Grade III): Grade III 18% | Leukopenia (Grade IV): Grade IV 3% | Hearing Loss (clinical) (human, in vivo): 12%

Nc1nc(Cl)nc2c1ncn2[C@H]1C[C@H](O)[C@@H](CO)O1 [Cladribine]
Anemia Grade III-IV (Grade III-IV): 22% | Documented Infection (Grade III-IV): Infections 13% | Leukopenia/Neutropenia Toxicity (Grade III-IV): Grade III-IV 87% | Neutropenic Fever (Grade III-IV): Neutropenic Fever 42% | Thrombocytopenia (Grade III-IV): Thrombocytopenia 20%

Nc1ccn([C@@H]2O[C@H](CO)[C@@H](O)[C@@H]2O)c(=O)n1 [Cytarabine]
CNS Toxicities (human, in vivo, iv): CNS Toxicities 12% | CNS Toxicities (human, in vivo): (32% with age >60 yrs)

CN(C)/N=N/c1[nH]cnc1C(N)=O [Dacarbazine]
Anemia Grade III-IV (human, in vivo, iv): Anemia Grade III-IV 6% | Anemia Grade IV (human, in vivo, iv): Anemia Grade IV 1% | Asthenia (Grade III) (human, in vivo, iv): Asthenia (Grade III) 1% | Constipation (Grade III) (human, in vivo, iv): (Grade III) 3% | Dyspnea (human, in vivo, iv): Dyspnea 1% | Fatigue (Grade III) (human, in vivo, iv): Fatigue (Grade III) 2% | Fever (Grade III) (human, in vivo, iv): Fever (Grade III) 2% | Headache (Grade III) (human, in vivo, iv): Headache (Grade III) 1% | Leukopenia without neutropenia Grade III (human, in vivo, iv): Grade III 1% | Nausea (Grade III) (human, in vivo, iv): Nausea (Grade III) 4% | Nausea/Vomiting (human, in vivo, iv): Nausea/Vomiting 5% | Pain (Grade III) (human, in vivo, iv): Pain (Grade III) 13% | Somnolence (Grade III) (human, in vivo, iv): (Grade III) 1% | Vomiting (Grade III) (human, in vivo, iv): Vomiting (Grade III) 4%

CC(=O)O[C@@]12CO[C@@H]1C[C@H](O)[C@@]1(C)C(=O)[C@H](O)C3=C(C)[C@@H](OC(=O)[C@H](O)[C@@H](NC(=O)OC(C)(C)C)c4ccccc4)C[C@@](O)([C@@H](OC(=O)c4ccccc4)[C@H]21)C3(C)C [Docetaxel]
Alopecia (Grade III-IV): Alopecia 13% | Asthenia (Grade III-IV): Asthenia 16% | Diarrhea (Grade III-IV): Diarrhea 8% | Fatigue/Asthenia (Grade III-IV): Fatigue/Asthenia 10% | Febrile Neutropenia (Grade III-IV): Febrile Neutropenia 33% | Hypersensitivity Reaction (Grade III-IV): Reactions 3% | Leukopenia/Neutropenia Toxicity (Grade III-IV): Grade III-IV 93% | Nausea (Grade III-IV): Nausea 5% | Nausea/Emesis (Grade III-IV): Nausea/Emesis 10% | Neuropathy (Grade III-IV): Neuropathy 3% | Neurosensory (Grade III-IV): Neurosensory 5% | Neutropenic Fever (Grade III-IV): Neutropenic Fever 9% | Severe Fluid Retention (Grade III-IV): 8% | Stomatitis (Grade III-IV): Stomatitis 9% | Thrombocytopenia (Grade III-IV): Thrombocytopenia 4% | Vomiting (Grade III-IV): Vomiting 3% | Granulocytopenia (Grade III): Grade III 6% | Leukopenia (Grade III): Grade III 8% | Thrombocytopenia (Grade III): (Grade III) 6% | Granulocytopenia (Grade IV): Grade IV 72% | Neutropenic Infection (human, in vivo, iv): (Grade III-IV) 11%

COc1cccc2c1C(=O)c1c(O)c3c(c(O)c1C2=O)C[C@@](O)(C(=O)CO)C[C@@H]3O[C@H]1C[C@H](N)[C@H](O)[C@H](C)O1 [Doxorubicin]
Cardiotoxicity (human, in vivo, iv): Cardiotoxicity 1% | Gastrointestinal (human, in vivo, iv): Gastrointestinal 3% | Infection (human, in vivo, iv): Infection 3% | Leukopenia/Neutropenia Toxicity (human, in vivo, iv): Grade III-IV 8% | Leukopenia/Neutropenia Toxicity Grade III-IV (human, in vivo, iv): Grade III-IV 51% | Leukopenia/Neutropenia Toxicity Grade IV (human, in vivo, iv): Grade IV 21% | Mucositis (human, in vivo, iv): Mucositis 6% | Nausea/Vomiting (human, in vivo, iv): Nausea/Vomiting 13% | Thrombocytopenia (human, in vivo, iv): Thrombocytopenia 2%

Nc1nc(F)nc2c1ncn2[C@@H]1O[C@H](CO)[C@@H](O)[C@@H]1O [Fludarabine]
Diarrhea (Grade III-IV): Diarrhea 2% | Nausea (Grade III-IV): Nausea 3% | Neuropathy (Grade III-IV): Neuropathy 4% | Stomatitis (Grade III-IV): Stomatitis 2% | Thrombocytopenia (Grade III-IV): Thrombocytopenia 25% | Neutropenia (Grade IV (of cycles)): Neutropenia 56% | Febrile Infection During Cycles 1-3 (human, in vivo): Cycles 1-3 30%

CN(Cc1cnc2nc(N)nc(N)c2n1)c1ccc(C(=O)N[C@@H](CCC(=O)O)C(=O)O)cc1 [Methotrexate]
Hepatotoxicity (Grade III) (human, in vivo): 24.4% (all ages) | Hepatotoxicity (Grade IV) (human, in vivo): 2.4% (all ages)

CC(=O)O[C@H]1C(=O)[C@@]2(C)[C@H]([C@H](OC(=O)c3ccccc3)[C@]3(O)C[C@H](OC(=O)[C@H](O)[C@@H](NC(=O)c4ccccc4)c4ccccc4)C(C)=C1C3(C)C)[C@]1(OC(C)=O)CO[C@@H]1C[C@@H]2O [Paclitaxel]
Increased AST (human, in vivo, iv): Increased AST 5% | Leukopenia/Neutropenia Toxicity (human, in vivo, iv): Grade III-IV 23%

Cn1nnc2c(C(N)=O)ncn2c1=O [Temozolomide]
Anemia Grade III-IV (Grade III-IV): Anemia Grade III-IV 1% | Asthenia (Grade III-IV): Asthenia 6% | Fatigue (Grade III-IV): Fatigue 5% | Fever (Grade III-IV): Fever 2% | Headache (Grade III-IV): Headache 6% | Nausea (Grade III-IV): Nausea 10% | Thrombocytopenia (Grade III-IV): Thrombocytopenia 6% | Vomiting (Grade III-IV): Vomiting 6% | Leukopenia (grade not given): Leukopenia 2% | Neutropenia (grade not given): Neutropenia 2% | Fever [1]: Fever 2% | Headache [1]: Headache 6% | Thrombocytopenia [1]: Thrombocytopenia 7% | Vomiting [1]: Vomiting 5% | Anemia Grade III-IV [2]: Anemia Grade III-IV 2% | Asthenia (Grade III) [2]: Asthenia (Grade III) 3% | Constipation (Grade III) [2]: (Grade III) 3% | Fatigue (Grade III) [2]: Fatigue (Grade III) 3% | Nausea (Grade III) [2]: Nausea (Grade III) 4% | Neutropenia Grade III [2]: Grade III 1% | Neutropenia Grade IV [2]: Grade IV 2% | Pain (Grade III) [2]: Pain (Grade III) 7%

O=C1CCC(N2C(=O)c3ccccc3C2=O)C(=O)N1 (stereo not drawn) [Thalidomide]
Anemia Grade III-IV (human, in vivo): 3.6% | Thrombocytopenia (human, in vivo): Thrombocytopenia 3.6%

CC[C@@]1(O)C(=O)OCc2c1cc1n(c2=O)Cc2cc3c(CN(C)C)c(O)ccc3nc2-1 [Topotecan]
Anorexia (human, in vivo, iv): Anorexia 1% | Diarrhea (human, in vivo, iv): Diarrhea 1% | Fatigue (human, in vivo, iv): Fatigue 5% | Neutropenic Sepsis (human, in vivo, iv): Neutropenic Sepsis 5% | Sepsis (human, in vivo, iv): Sepsis 9% | Severe Bleed (human, in vivo, iv): Severe Bleed <1% | Stomatitis (human, in vivo, iv): Stomatitis 2% | Leukopenia/Neutropenia Toxicity (human, in vivo): Grade III 15%
